# Experimental data from patent publication US12581252B2, “Substituted pyrrolo[3,4-b]pyridines as PI3K-α inhibitors” (Relay Therapeutics, Inc., priority 2020, dated 2026).
# Biological target: H1047R PIK3CA enzyme (Homo sapiens, UniProt P42336, H1047R)
# Assay: ADP-Glo Biochemical PIK3CA Kinase Assay
# Sequence of H1047R PIK3CA enzyme (P42336 whole entry H1047R): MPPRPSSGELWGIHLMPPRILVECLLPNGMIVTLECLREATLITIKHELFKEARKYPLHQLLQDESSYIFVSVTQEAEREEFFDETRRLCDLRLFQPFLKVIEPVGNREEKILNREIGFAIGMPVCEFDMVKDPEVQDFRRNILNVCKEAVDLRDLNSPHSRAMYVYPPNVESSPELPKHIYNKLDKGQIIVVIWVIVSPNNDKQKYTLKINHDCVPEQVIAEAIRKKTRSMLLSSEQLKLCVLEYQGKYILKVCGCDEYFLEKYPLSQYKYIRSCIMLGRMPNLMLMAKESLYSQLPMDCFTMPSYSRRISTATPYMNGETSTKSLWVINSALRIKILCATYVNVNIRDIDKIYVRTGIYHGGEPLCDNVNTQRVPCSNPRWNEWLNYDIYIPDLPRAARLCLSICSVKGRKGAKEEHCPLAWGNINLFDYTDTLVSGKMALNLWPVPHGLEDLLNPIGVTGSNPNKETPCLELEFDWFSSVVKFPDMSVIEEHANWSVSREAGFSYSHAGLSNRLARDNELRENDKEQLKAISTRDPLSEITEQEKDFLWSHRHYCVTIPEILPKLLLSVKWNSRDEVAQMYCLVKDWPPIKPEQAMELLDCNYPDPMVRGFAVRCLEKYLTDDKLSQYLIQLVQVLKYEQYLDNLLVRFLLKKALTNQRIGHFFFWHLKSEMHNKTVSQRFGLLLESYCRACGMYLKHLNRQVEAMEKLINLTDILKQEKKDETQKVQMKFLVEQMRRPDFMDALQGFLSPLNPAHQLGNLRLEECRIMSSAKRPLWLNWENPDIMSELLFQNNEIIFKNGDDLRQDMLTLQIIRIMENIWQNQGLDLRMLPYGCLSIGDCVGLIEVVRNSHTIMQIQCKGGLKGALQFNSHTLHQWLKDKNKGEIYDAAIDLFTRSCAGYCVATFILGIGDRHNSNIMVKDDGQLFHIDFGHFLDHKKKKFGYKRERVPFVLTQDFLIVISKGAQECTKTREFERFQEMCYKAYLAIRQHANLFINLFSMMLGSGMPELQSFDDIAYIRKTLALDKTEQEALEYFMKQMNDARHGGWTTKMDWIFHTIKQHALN
# Sequence of H1047R PIK3CA enzyme (P27986 whole entry partner): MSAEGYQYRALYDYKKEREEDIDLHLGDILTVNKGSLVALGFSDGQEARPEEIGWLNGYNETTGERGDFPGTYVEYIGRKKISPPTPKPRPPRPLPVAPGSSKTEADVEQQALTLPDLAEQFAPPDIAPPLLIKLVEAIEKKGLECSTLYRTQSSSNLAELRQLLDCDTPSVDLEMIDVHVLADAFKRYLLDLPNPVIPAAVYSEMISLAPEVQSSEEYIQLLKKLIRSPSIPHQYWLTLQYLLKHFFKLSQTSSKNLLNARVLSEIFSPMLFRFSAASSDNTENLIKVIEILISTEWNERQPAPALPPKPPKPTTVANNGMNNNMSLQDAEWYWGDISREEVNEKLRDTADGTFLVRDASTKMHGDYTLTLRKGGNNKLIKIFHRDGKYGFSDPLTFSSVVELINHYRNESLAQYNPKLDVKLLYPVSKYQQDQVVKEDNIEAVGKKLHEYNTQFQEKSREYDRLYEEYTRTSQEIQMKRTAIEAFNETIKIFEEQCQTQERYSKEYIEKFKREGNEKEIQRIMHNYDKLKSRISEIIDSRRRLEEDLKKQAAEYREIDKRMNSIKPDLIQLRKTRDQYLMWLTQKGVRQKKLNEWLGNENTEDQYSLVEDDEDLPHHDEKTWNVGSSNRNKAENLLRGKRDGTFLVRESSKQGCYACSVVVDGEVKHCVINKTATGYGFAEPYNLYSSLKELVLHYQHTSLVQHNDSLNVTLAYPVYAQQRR
row,SMILES,IC50 [nM]
1,O=C1NC(c2cc(F)ccc2Cl)c2c1cc(-c1ccc3ncnn3c1)cc2N1CCn2c(nnc2C(F)(F)F)C1 (centres unmarked) [Compound I-2040],10000 to 100000
2,O=C(Nc1cccc2c1C(c1cc(F)ccc1Cl)NC2=O)c1cc(B(O)O)cc(C(F)(F)F)c1 (centres unmarked) [Compound I-450],1000 to 10000
3,"Nc1cc(NC(=O)N2C[C@H](O)c3ccccc32)c2c(c1)C(=O)N[C@H]2c1cc(F)ccc1Cl (single isomer, unassigned) [Compound I-2132]",≤ 100
4,N#CC1CC(c2cc(NC(=O)c3cc(F)cc(C(F)(F)F)c3)c3c(c2)C(=O)NC3c2cc(F)ccc2Cl)C1 (centres unmarked) [Compound I-1175],≤ 100
5,O=C(Nc1cc(-c2ccn3ncnc3c2F)cc2c1[C@H](c1cc(F)ccc1Cl)NC2=O)c1cc(F)cc(C(F)(F)F)c1 [Compound I-1765],≤ 100
6,O=C(Nc1cc(-c2ccc3ncnn3n2)cc2c1C(c1cc(F)ccc1Cl)NC2=O)c1cc(F)cc(C(F)(F)F)c1 (centres unmarked) [Compound I-1458],≤ 100
7,O=C(Nc1cc(-c2ccc3nnnn3c2)cc2c1[C@H](c1cc(F)ccc1Cl)NC2=O)c1cc(F)cc(C(F)(F)F)c1 [Compound I-1453],≤ 100
8,O=C(Nc1cc(-c2cccnc2C(F)(F)F)cc2c1C(c1cc(F)ccc1Cl)NC2=O)c1cc(F)cc(C(F)(F)F)c1 (centres unmarked) [Compound I-892],≤ 100
9,N#Cc1ncccc1-c1cc(NC(=O)c2cc(F)cc(C(F)(F)F)c2)c2c(c1)C(=O)NC2c1cc(F)ccc1Cl (centres unmarked) [Compound I-1214],≤ 100
10,"CC(C)(CN)n1cc(-c2cc(NC(=O)N3C[C@@](O)(C(F)(F)F)c4cc(F)ccc43)c3c(c2)C(=O)N[C@H]3c2cc(F)ccc2Cl)cn1 (single isomer, unassigned) [Compound I-2651]",1000 to 10000
11,O=C(Nc1cc(Br)cc2c1C(c1cc(F)ccc1Cl)NC2=O)c1cncc(F)c1 (centres unmarked) [Compound I-958],10000 to 100000
12,Cn1ccc2cc(-c3cc(NC(=O)c4cc(F)cc(C(F)(F)F)c4)c4c(c3)C(=O)NC4c3cc(F)ccc3Cl)ccc21 (centres unmarked) [Compound I-853],100 to 500
13,"O=C(Nc1cccc2c1[C@H]([C@@H]1CCCCCN1)NC2=O)c1cc(F)cc(C(F)(F)F)c1 (single isomer, unassigned) [Compound I-2319]",10000 to 100000
14,CC(O)Cc1cc(NC(=O)c2cc(F)cc(C(F)(F)F)c2)c2c(c1)C(=O)NC2c1cc(F)ccc1Cl (racemic) [Compound I-665],≤ 100
15,Cc1ccccc1C1NC(=O)c2cccc(NC(=O)c3nnc4ccc(Cl)cn34)c21 (centres unmarked) [Compound I-400],10000 to 100000
16,C[C@H]([C@@H]1C[C@@H](O)CN1C(=O)Nc1cccc2c1[C@H](c1cc(F)ccc1Cl)NC2=O)C(F)(F)F (racemic) [Compound I-2341],100 to 500
17,Cc1ncc(-c2cc(NC(=O)c3cc(F)cc(C(F)(F)F)c3)c3c(n2)C(=O)NC3c2cc(F)ccc2Cl)cn1 (centres unmarked) [Compound I-584],≤ 100
18,"Cc1ccccc1[C@@H]1NC(=O)c2nccc(NC(=O)N3C[C@@H](C)c4ccccc43)c21 (single isomer, unassigned) [Compound I-303]",10000 to 100000
19,"O=C1N[C@@H](c2cc(F)ccc2Cl)c2c(NC(=O)N3C[C@@H](O)c4c(F)cccc43)cccc21 (single isomer, unassigned) [Compound I-2144]",1000 to 10000
20,COc1c(Cl)cc(F)cc1C(=O)Nc1cc(Br)cc2c1C(c1cc(F)ccc1Cl)NC2=O (centres unmarked) [Compound I-834],1000 to 10000
21,COc1nccc(Oc2cc(NC(=O)c3cc(F)cc(C(F)(F)F)c3)c3c(c2)C(=O)NC3c2cc(F)ccc2Cl)n1 (centres unmarked) [Compound I-1148],≤ 100

row,SMILES,IC50 [nM]
1,O=C1N[C@@H](c2cc(F)ccc2Cl)c2c(N[C@@H]3COCc4ccccc43)cc(Br)cc21 (racemic) [Compound I-1894],10000 to 100000
2,O=C1NC(c2cc(F)ccc2Cl)c2c(NC(=O)C34CC5CC(C3)C(F)(F)C(C5)C4)cc(Br)cc21 (centres unmarked) [Compound I-1203],100 to 500
3,"O=C1N[C@@H](c2cc(F)ccc2Cl)c2c(NC(=O)N3C[C@](O)(C(F)(F)F)c4ccccc43)cccc21 (single isomer, unassigned) [Compound I-2384]",1000 to 10000
4,O=C(Nc1cc(-c2ccn3nc(Cl)nc3c2)cc2c1[C@@H](c1cc(F)ccc1Cl)NC2=O)c1cc(F)cc(C(F)(F)F)c1 [Compound I-1695],1000 to 10000
5,O=C(Nc1cc(Br)cc2c1C(c1cc(F)ccc1Cl)NC2=O)c1ccc(C(F)(F)F)s1 (centres unmarked) [Compound I-1427],1000 to 10000
6,O=C1NC(c2cc(F)ccc2Cl)c2c(NC(=O)C3(c4cccc(F)c4)CC3)cc(Br)cc21 (centres unmarked) [Compound I-557],1000 to 10000
7,O=C(Nc1cccc2c1C(C1NC3CCC1C3)NC2=O)c1cc(F)cc(C(F)(F)F)c1 (centres unmarked) [Compound I-2076],10000 to 100000
8,COc1cc(C(=O)Nc2cc(Br)cc3c2C(c2cc(F)ccc2Cl)NC3=O)ccc1F (centres unmarked) [Compound I-559],1000 to 10000
9,O=C1NC(c2cc(F)ccc2Cl)c2c(Nc3cn[nH]c3)cc(Br)cc21 (centres unmarked) [Compound I-2056],10000 to 100000
10,N#CCOc1ncc(-c2cc(NC(=O)c3cc(F)cc(C(F)(F)F)c3)c3c(c2)C(=O)NC3c2cc(F)ccc2Cl)cn1 (centres unmarked) [Compound I-1530],≤ 100
11,"CNc1cc(NC(=O)N2C[C@](O)(C(F)(F)F)c3cc(F)ccc32)c2c(c1)C(=O)N[C@@H]2c1cc(F)ccc1Cl (single isomer, unassigned) [Compound I-2641]",500 to 1000
12,O=C1NC(c2cc(F)ccc2Cl)c2c(NC(=O)c3ccnc4ccc(Cl)cc34)cc(Br)cc21 (centres unmarked) [Compound I-606],10000 to 100000
13,O=C(Nc1cc(-c2ccc3nc[nH]c3c2)cc2c1C(c1cc(F)ccc1Cl)NC2=O)c1cc(F)cc(C(F)(F)F)c1 (centres unmarked) [Compound I-1035],≤ 100
14,"O=C1N[C@H](c2cc(F)ccc2Cl)c2c(NC(=O)N3C[C@](O)(C(F)(F)F)c4cc(F)ccc43)cc(C3COC3)cc21 (single isomer, unassigned) [Compound I-2653]",10000 to 100000
15,"C[C@]1(O)CN(C(=O)Nc2cccc3c2[C@@H](c2cc(F)ccc2Cl)NC3=O)c2ccccc21 (single isomer, unassigned) [Compound I-2203]",1000 to 10000
16,O=C(Nc1cc(Br)cc2c1[C@H](c1cc(F)cc(F)c1Cl)NC2=O)c1cc(F)cc(C(F)(F)F)c1 [Compound I-805],≤ 100
17,O=C1N[C@@H](c2cc(F)ccc2Cl)c2c(NC(=O)N3CC4(CC4)c4cc(F)ccc43)cc(Br)cc21 (stereo in doubt) [Compound I-1509],≤ 100
18,O=C(Nc1cc(-c2cncc(F)c2)nc2c1C(c1cc(F)ccc1Cl)NC2=O)c1cc(F)cc(C(F)(F)F)c1 (centres unmarked) [Compound I-585],≤ 100
19,O=C(Nc1cc(CS(=O)(=O)Cc2ccncc2)cc2c1C(c1cc(F)ccc1Cl)NC2=O)c1cc(F)cc(C(F)(F)F)c1 (centres unmarked) [Compound I-1470],≤ 100
20,O=C(Nc1cc(-c2ccc(C(F)F)nc2)cc2c1[C@H](c1cc(F)ccc1Cl)NC2=O)c1cc(F)cc(C(F)(F)F)c1 [Compound I-2008],≤ 100
21,O=C1NC(c2cc(F)ccc2Cl)c2c(NC(=O)C3CCC(C(F)(F)F)CC3)cc(Br)cc21 (centres unmarked) [Compound I-1324],1000 to 10000

row,SMILES,IC50 [nM]
1,O=C(Nc1cc(Br)cc2c1C(c1cc(F)ccc1Cl)NC2=O)c1cc(Cl)ccc1OC(F)(F)F (centres unmarked) [Compound I-859],1000 to 10000
2,Cc1ccccc1C1NC(=O)c2cc([C@@H](C)NC(=O)OC(C)(C)C)cc(NC(=O)c3csc4ccccc34)c21 (mixture of isomers) [Compound I-89],100 to 500
3,CC(C)(O)Cc1cc(NC(=O)c2cc(F)cc(C(F)(F)F)c2)c2c(c1)C(=O)NC2c1cc(F)ccc1Cl (centres unmarked) [Compound I-437],≤ 100
4,CC1(C(=O)Nc2cc(Br)cc3c2C(c2cc(F)ccc2Cl)NC3=O)CCCC(C(F)(F)F)C1 (mixture of isomers) [Compound I-1358],100 to 500
5,O=C(Nc1cc(-c2cnc3ncnn3c2)cc2c1[C@@H](c1cc(F)ccc1Cl)NC2=O)c1cc(F)cc(C(F)(F)F)c1 [Compound I-1023],500 to 1000
6,O=C1NC(c2cc(F)ccc2Cl)c2c(Nc3ncc(C(F)(F)F)cc3F)cc(Br)cc21 (centres unmarked) [Compound I-1118],500 to 1000
7,"O=C1N[C@H](c2cc(F)ccc2Cl)c2c(NC(=O)N3C[C@@H](O)c4cc(F)ccc43)cc(-n3cccn3)cc21 (single isomer, unassigned) [Compound I-2365]",500 to 1000
8,"CC[C@]1(O)CN(C(=O)Nc2cccc3c2[C@H](c2cc(F)ccc2Cl)NC3=O)c2ccc(F)cc21 (single isomer, unassigned) [Compound I-2462]",1000 to 10000
9,CC(C)(COS(C)(=O)=O)c1cc(NC(=O)c2cc(F)cc(C(F)(F)F)c2)c2c(c1)C(=O)NC2c1cc(F)ccc1Cl (centres unmarked) [Compound I-656],≤ 100
10,"O=C1N[C@H](c2cc(F)ccc2Cl)c2c(NC(=O)N3C[C@](O)(C(F)(F)F)c4cc(F)ccc43)cccc21 (single isomer, unassigned) [Compound I-2516]",1000 to 10000
11,CC1(n2[nH]c(=O)c3cccc(NC(=O)c4cc(F)cc(C(F)(F)F)c4)c32)CCCCC1 [Compound I-857],1000 to 10000
12,O=C(Nc1cc(Oc2ncccn2)cc2c1C(c1cc(F)ccc1Cl)NC2=O)c1cc(F)cc(C(F)(F)F)c1 (centres unmarked) [Compound I-1202],100 to 500
13,O=C1NC(c2cc(F)ccc2Cl)c2c(NC(=O)C34CC5CC(CC(O)(C5)C3)C4)cc(Br)cc21 (centres unmarked) [Compound I-1363],1000 to 10000
14,O=C1NC(c2cc(F)ccc2Cl)c2c(Nc3ccc4ccccc4c3)cc(Br)cc21 (centres unmarked) [Compound I-1725],1000 to 10000
15,"[2H][C@]1(c2cc(F)ccc2Cl)NC(=O)c2cc(-c3ccc4ncnn4c3)cc(NC(=O)c3cc(F)cc(C(F)(F)F)c3)c21 (single isomer, unassigned) [Compound I-1600]",≤ 100
16,"O=C(Nc1cccc2c1[C@@H](C1CC1)NC2=O)c1cc(F)cc(C(F)(F)F)c1 (single isomer, unassigned) [Compound I-2220]",10000 to 100000
17,O=C(Nc1cc(Br)cc2c1C(c1cc(F)ccc1Cl)NC2=O)c1cc(C(F)(F)F)cs1 (centres unmarked) [Compound I-1428],1000 to 10000
18,N#Cc1ccc(Cl)c(C2NC(=O)c3cccc(NC(=O)c4cc(F)cc(C(F)(F)F)c4)c32)c1 (centres unmarked) [Compound I-485],10000 to 100000
19,CC(C)(O)c1cc(NC(=O)c2nsc3ccccc23)c2c(c1)C(=O)N[C@@H]2c1cc(F)ccc1Cl [Compound I-191],500 to 1000
20,CNS(=O)(=O)Cc1cc(NC(=O)c2cc(F)cc(C(F)(F)F)c2)c2c(c1)C(=O)N[C@H]2c1cc(F)ccc1Cl [Compound I-1534],≤ 100
